{"source": "patent US10564084B2", "about": "“Rapid characterization of the solubility of amphiphiles” (The Trustees of Princeton University, priority 2013, dated 2020)", "origin": "cited, not measured here", "conditions": "in water; used to rescale the concentration c"}
{"smiles": "CCCCCCCCCCCCCCCC[N+](C)(C)C.[Cl-]", "note": "[C16TAC, hexadecyl trimethylammonium chloride]", "values": [{"measurement": "critical micellar concentration cmc", "value": 1.6, "unit": "mM"}]}
